14 compounds from patent publication US20090105301A1, “9A-SUBSTITUTED AZALIDES FOR THE TREATMENT OF MALARIA” (priority 2006, published 2009) can be followed below.

Molecules are shown by their SMILES. Converted amounts (≈) assume the structure as drawn. Structures can show the parent of a compound that is named as a salt.

Holding throughout (assay type): cell-based, Plasmodium falciparum
For assay [1], the system named is P. falciparum D6 (CDC/Sierra Leone I, D-6). The assay can be described thus: In vitro screening protocol I, [3H]-hypoxanthine incorporation, D6. Particulars: In vitro screening protocol I, P. falciparum D6; for IC50: Plasmodium falciparum, read-out: IC50 D6. An excerpt:
(§1) Agents Chemother. 27 (4) (1985) 525-530). The system was limited to the assessment of the intrinsic activity against the erythrocytic asexual life cycle (blood schizontocides). Two Plasmodium falciparum clones from CDC/Indochina III (W-2) and CDC/Sierra Leone I (D-6) (Oduola A M, Weatherly N F, Bowdre J H, Desjardins R E. Plasmodium falciparum: cloning by single-erythrocyte micromanipulation and heterogeneity in vitro. Exp Parasitol. 66 (1) (1988) 86-95) were used for all assays. TM91C235, a multiple drug resistant isolate from Thailand (Antimicrob. Agents Chemother. 46 (8) (2002) 2627 and Antimicrob. Agents Chemother. 43 (3) (1999) 598-602), was used for the prescreening assay. W-2 is resistant to chloroquine, quinine, and pyrimethamine and susceptible to mefloquine. D-6 tends to be more resistant to mefloquine and susceptible to chloroquine, quinine, and pyrimethamine. All documents cited in this paragraph are incorporated by reference in their entirety.
(§2) All parasites were maintained in continuous long term cultures in RPMI-1640 medium supplemented with 6% washed human A positive (A+)(erythrocytes, 25 mM Hepes, […], and 10% heat inactivated A+ human plasma or ALBUMAX® (lipid-rich bovine serum albumin; Invitrogen, Carlsbad, Calif.). All cultures and assays were conducted at 37° C. under an atmosphere of 5% CO2 and 5% O2, with a balance of N2.
(§3) The prescreening assay uses TM91C235 diluted at a 0.4% parasitemia in a 1% hematocrit in folic acid free and p-aminobenzoic acid free media RPMI-1640 and ALBUMAX®. […] The compound is further diluted in folate free (FF) culture medium with ALBUMAX® for the first initial starting concentration. The rest of the stock drug solution was kept at −70° C. The isolate was preexposed, in duplicate, at three concentrations (25,000 ng/ml, 2,500 ng/ml, and […]) of the test compound for 48 hr in a 96-well microtiter plate (MTP) using the BIOMEK® 2000 automated laboratory workstation. Each MTP contains chloroquine as control to assess the relative activity of the compound and to monitor the response of TM91C235.
(§4) After the preincubation, [^3H]-hypoxanthine was added to each well of the MTP. (The assay relies on the incorporation of radiolabeled hypoxanthine by the parasites, which indicates reproduction, and inhibition of isotope incorporation was attributed to activity of known or candidate antimalarial drugs). After 72 hours of total incubation time, the MTP were frozen to lyse the erythrocytes and parasites. The parasite DNA was recovered by harvesting the lysate onto glass-fiber filter plates using a Packard FilterMate™ Cell Harvester. The radioactivity was counted on a Packard TopCount™ microplate scintillation counter.
(§5) The serial dilution assay was conducted using the same assay conditions and stock solution of the compound used for the preliminary screen, described above. Both the D-6 and the W-2 clones were used. The compounds were diluted two-fold over 11 different concentration ranges with a starting concentration that was based on the preliminary screen. For each drug, the concentration response profile was determined and 50% inhibitory concentrations (IC50) were determined by using a non-linear, logistic dose response analysis program. […] For each assay, the IC50 for each clone was determined against the known antimalarials chloroquine and mefloquine. These control values established the compound's relative parasite susceptibility profile compared to known antimalarials. […]

Another assay has as its system P. falciparum TM91C235. Nature of the assay: In vitro screening protocol I, [3H]-hypoxanthine incorporation, TM91C235. To be noted: In vitro screening protocol I, P. falciparum TM91C235; for IC50: Plasmodium falciparum, read-out: IC50 TM91C235.
Source text: as §1, §2, §3, §4, §5

Assay [2] relates to P. falciparum W2 (CDC/Indochina III, W-2). Nature of the assay: In vitro screening protocol I, [3H]-hypoxanthine incorporation, W2. To be noted: In vitro screening protocol I, P. falciparum W2; for IC50: Plasmodium falciparum, read-out: IC50 W2.
Source text: as §1, §2, §3, §4, §5

A word on the IC50: it is the concentration needed to halve the response being measured. Turning to `CCOc1ccc2ccccc2c1CNCCCN1C[C@H](C)C[C@@](C)(O)[C@H](O[C@@H]2O[C@H](C)C[C@H](N(C)C)[C@H]2O)[C@@H](C)[C@H](O[C@H]2C[C@@](C)(OC)[C@@H](O)[C@H](C)O2)[C@@H](C)C(=O)O[C@H](CC)[C@@](C)(O)[C@H](O)[C@H]1C` [Example 7, 9a-[3-({[2-(Ethyloxy)-naphthalen-1-yl]methyl}amino)propyl]-9-deoxo-9-dihydro-9a-aza-9a-homoerythromycin A], the IC50 (in assay [1]; in the assay with P. falciparum TM91C235; in assay [2]) was under 0.1 µg/mL throughout.

With `CC[C@H]1OC(=O)[C@H](C)[C@@H](O)[C@H](C)[C@@H](O[C@@H]2O[C@H](C)C[C@H](N(C)C)[C@H]2O)[C@](C)(O)C[C@@H](C)CN(CCCNCc2cccc3ccccc23)[C@H](C)[C@@H](O)[C@]1(C)O` [Example 9, 9a-{3-[(Naphtalen-1-yl-methyl)amino]propyl}-3-O-decladinosyl-9-deoxo-9-dihydro-9a-aza-9a-homoerythromycin A], in assay [1], the “IC50 D6” value is on record as “A (X ≦ 100)”. Moreover, the “IC50 TM91C235” value in the assay with P. falciparum TM91C235 is on record as “A (X ≦ 100)”. For the same compound, the “IC50 W2” value in assay [2] is reported as “A (X ≦ 100)”.

`CC[C@H]1OC(=O)[C@H](C)[C@@H](O[C@H]2C[C@@](C)(OC)[C@@H](O)[C@H](C)O2)[C@H](C)[C@@H](O[C@@H]2O[C@H](C)C[C@H](NC)[C@H]2O)[C@](C)(O)C[C@@H](C)CN(CCCNc2ccnc3ccccc23)[C@H](C)[C@@H](O)[C@]1(C)O` [Example 25, 9a-[3-(Quinolin-4-yl-amino)propyl]-3′-N-demethyl-9-deoxo-9-dihydro-9a-aza-9a-homoerythromycin A]: the IC50 in assay [1] lay within 1 to 2.5 µg/mL (≈ 1.1 to 2.76 µM); with P. falciparum TM91C235, 0.2 to 1 µg/mL (≈ 0.221 to 1.1 µM); in assay [2], 1 to 2.5 µg/mL (≈ 1.1 to 2.76 µM).

Regarding `CCC1OC(=O)C(C)C(O)C(C)C(O)C(C)(O)CC(C)CN(CCCNCc2cnc3ccccc3c2)C(C)C(O)C1(C)O` (stereo not drawn) [Example 6, 9a-{3-[(Quinolin-3-yl-methyl)amino]propyl}-3-O-decladinosyl-5-O-dedesosaminyl-9-deoxo-9-dihydro-9a-aza-9a-homoerythromycin A], the “IC50 D6” value in assay [1] is given as “F (2800 < X ≦ 3500)”. Moreover, in the assay on P. falciparum TM91C235, the “IC50 TM91C235” value was “D (1000 < X ≦ 2500)”. In addition, the “IC50 W2” value in assay [2] is reported as “C (200 < X ≦ 1000)”.

Take `CC[C@H]1OC(=O)[C@H](C)[C@@H](O[C@H]2C[C@@](C)(OC)[C@@H](O)[C@H](C)O2)[C@H](C)[C@@H](O[C@@H]2O[C@H](C)C[C@H](N(C)C)[C@H]2O)[C@](C)(O)C[C@@H](C)CN(CCCNCc2ccnc3ccccc23)[C@H](C)[C@@H](O)[C@]1(C)O` [Example 14, 9a-{3-[(Quinolin-4-yl-methyl)amino]propyl}-9-deoxo-9-dihydro-9a-aza-9a-homoerythromycin A]: the “IC50 D6” value in assay [1] is given as “B (100 < X ≦ 200)”. The “IC50 TM91C235” value with P. falciparum TM91C235 is recorded as “B (100 < X ≦ 200)”. For the same compound, in assay [2], the “IC50 W2” value was “B (100 < X ≦ 200)”.

Take `CC[C@H]1OC(=O)[C@H](C)[C@@H](O)[C@H](C)[C@@H](O[C@@H]2O[C@H](C)C[C@H](N(C)C)[C@H]2O)[C@](C)(O)C[C@@H](C)CN(CCCNCc2ccc3ccccc3n2)[C@H](C)[C@@H](O)[C@]1(C)O` [Example 2, 9a-{3-[(Quinolin-2-yl-methyl)amino]propyl}-3-O-decladinosyl-9-deoxo-9-dihydro-9a-aza-9a-homoerythromycin A]: the IC50 fell in the range of 0.2 to 1 µg/mL (≈ 0.258 to 1.29 µM) in assay [1], 0.1 to 0.2 µg/mL (≈ 0.129 to 0.258 µM) in the assay with P. falciparum TM91C235 and 0.1 to 0.2 µg/mL (≈ 0.129 to 0.258 µM) in assay [2].

In the case of `CC[C@H]1OC(=O)[C@H](C)[C@@H](O[C@H]2C[C@@](C)(OC)[C@@H](O)[C@H](C)O2)[C@H](C)[C@@H](O[C@@H]2O[C@H](C)C[C@H](N(C)C)[C@H]2O)[C@](C)(O)C[C@@H](C)CN(CCCNC(=O)Cc2ccc3ccccc3c2)[C@H](C)[C@@H](O)[C@]1(C)O` [Example 33, 9a-{3-[(Naphtalen-2-yl-acetyl)amino]propyl}-9a-aza-9-deoxo-9-dihydro-9a-homoerythromycin A Formiate Salt], the IC50 in assay [1] was 0.1 to 0.2 µg/mL; with P. falciparum TM91C235 it was under 0.1 µg/mL; in assay [2], 0.2 to 1 µg/mL.

`CC[C@H]1OC(=O)[C@H](C)[C@@H](O[C@H]2C[C@@](C)(OC)[C@@H](O)[C@H](C)O2)[C@H](C)[C@@H](O[C@@H]2O[C@H](C)C[C@H](N(C)C)[C@H]2O)[C@](C)(O)C[C@@H](C)CN(CCCNCc2ccncc2)[C@H](C)[C@@H](O)[C@]1(C)O` [Example 10, 9a-{3-[(Pyridine-4-yl-methyl)amino]propyl}-9-deoxo-9-dihydro-9a-aza-9a-homoerythromycin A]: in assay [1], the “IC50 D6” value is on record as “C (200 < X ≦ 1000)”. Also, the “IC50 TM91C235” value in the assay with P. falciparum TM91C235 is reported as “C (200 < X ≦ 1000)”. Also, in assay [2], the “IC50 W2” value is listed as “C (200 < X ≦ 1000)”.

Consider `CC[C@H]1OC(=O)[C@H](C)[C@@H](O[C@H]2C[C@@](C)(OC)[C@@H](O)[C@H](C)O2)[C@H](C)[C@@H](O[C@@H]2O[C@H](C)C[C@H](N(C)C)[C@H]2O)[C@](C)(O)C[C@@H](C)CN(CCCNc2ccnc3cc(Cl)ccc23)[C@H](C)[C@@H](O)[C@]1(C)O` [Example 21A, 9a-{3-[(7-Chloro-quinolin-4-yl)amino]propyl}-9-deoxo-9-dihydro-9a-aza-9a-homoerythromycin A], for which the IC50 (in assay [1]; with P. falciparum TM91C235; in assay [2]) was under 0.1 µg/mL throughout.

With `CC[C@H]1OC(=O)[C@H](C)[C@@H](O[C@H]2C[C@@](C)(OC)[C@@H](O)[C@H](C)O2)[C@H](C)[C@@H](O[C@@H]2O[C@H](C)C[C@H](N(C)C)[C@H]2O)[C@](C)(O)C[C@@H](C)CN(CCCNC(=O)Cc2cccc3ccccc23)[C@H](C)[C@@H](O)[C@]1(C)O` [Example 29, 9a-{3-[(Naphtalen-1-yl-acetyl)amino]propyl}-9a-aza-9-deoxo-9-dihydro-9a-homoerythromycin A Formiate Salt], the values for the half-inhibitory concentration (IC50) (in assay [1]; with P. falciparum TM91C235; in assay [2]) were 0.2 to 1 µg/mL, under 0.1 µg/mL and 0.2 to 1 µg/mL, respectively.

As for `CC[C@H]1OC(=O)[C@H](C)[C@@H](O[C@H]2C[C@@](C)(OC)[C@@H](O)[C@H](C)O2)[C@H](C)[C@@H](O[C@@H]2O[C@H](C)C[C@H](N(C)C)[C@H]2O)[C@](C)(O)C[C@@H](C)CN(CCCNCCCc2ccccc2)[C@H](C)[C@@H](O)[C@]1(C)O` [Example 19, 9a-{3-[(3-Phenylpropyl)amino]propyl}-9-deoxo-9-dihydro-9a-aza-9a-homoerythromycin A], the values for the IC50 (in assay [1]; in the assay with P. falciparum TM91C235; in assay [2]) were 0.1 to 0.2 µg/mL (≈ 0.11 to 0.22 µM), under 0.1 µg/mL and under 0.1 µg/mL, respectively.

Consider `CC[C@H]1OC(=O)[C@H](C)[C@@H](O)[C@H](C)[C@@H](O[C@@H]2O[C@H](C)C[C@H](N(C)C)[C@H]2O)[C@](C)(O)C[C@@H](C)CN(CCCNc2ccnc3cc(Cl)ccc23)[C@H](C)[C@@H](O)[C@]1(C)O` [Example 23], for which the IC50 (in assay [1]; in the assay with P. falciparum TM91C235; in assay [2]) was under 0.1 µg/mL in each case.

On to `CC[C@H]1OC(=O)[C@H](C)[C@@H](O[C@H]2C[C@@](C)(OC)[C@@H](O)[C@H](C)O2)[C@H](C)[C@@H](O[C@@H]2O[C@H](C)C[C@H](N(C)C)[C@H]2O)[C@](C)(O)C[C@@H](C)CN(CCCNCCc2ccccc2)[C@H](C)[C@@H](O)[C@]1(C)O` [Example 20, 9a-{3-[(2-Phenylethyl)amino]propyl}-9-deoxo-9-dihydro-9a-aza-9a-homoerythromycin A], for which the IC50 in assay [1] was 0.2 to 1 µg/mL (≈ 0.223 to 1.12 µM); with P. falciparum TM91C235, under 0.1 µg/mL; in assay [2], under 0.1 µg/mL.

Regarding `CC[C@H]1OC(=O)[C@H](C)[C@@H](O[C@H]2C[C@@](C)(OC)[C@@H](O)[C@H](C)O2)[C@H](C)[C@@H](O[C@@H]2O[C@H](C)C[C@H](N(C)C)[C@H]2O)[C@](C)(O)C[C@@H](C)CN(CCC(=O)NCc2ccccc2)[C@H](C)[C@@H](O)[C@]1(C)O` [Example 38], the IC50 (in assay [1]; with P. falciparum TM91C235; in assay [2]) was 0.2 to 1 µg/mL (≈ 0.223 to 1.12 µM) in each case.
